SMILES strings stand for the structures.

This experiment deals with P. falciparum strain 3D7. Put plainly: In vitro potency against P. falciparum strain 3D7 (SYBR green/DAPI). The class given is cell-based. Particulars: Plasmodium falciparum, reductions in parasitemia, read-out: IC50 values.

With `CSc1ccc(Cl)cc1C1(O)C(N)=Nc2ccc(Cl)cc21` (centres unmarked) [Compound 169], the IC50 was 1 to 100 nM.
Take `CC(C)Sc1ccccc1C1(O)C(N)=Nc2ccc(Cl)cc21` (centres unmarked) [Compound 170]: the IC50 lay within 1 to 100 nM.
On to `CCSc1ccc(Cl)cc1C1(O)C(N)=Nc2ccc(Cl)cc21` (centres unmarked) [Compound 171], for which the IC50 lay within 1 to 100 nM.
Turning to `CC(C)n1ncc2cccc(C3(O)C(N)=Nc4ccc(Cl)cc43)c21` (centres unmarked) [Compound 172], the IC50 lay within 500 to 1000 nM.
Regarding `Cc1ccc(CC2(O)C(N)=Nc3ccc(Cl)cc32)o1` (centres unmarked) [Compound 173], the IC50 lay in the range of 100 to 500 nM.
Take `CN(C)c1ccc(Cl)cc1C1(O)C(N)=Nc2ccc(Cl)cc21` (centres unmarked) [Compound 174]: the half-maximal inhibitory concentration (IC50) lay in the range of 1 to 100 nM.
`NC1=Nc2ccc(Cl)cc2C1(O)c1cc(F)ccc1N1CCCCCC1` (centres unmarked) [Compound 175]: the IC50 lay within 1 to 100 nM.
For the molecule `CC(C)Sc1ccc(Cl)cc1C1(O)C(N)=Nc2ccc(Cl)cc21` (centres unmarked) [Compound 176], the IC50 lay in the range of 1 to 100 nM.
As to `COc1ccc(OC(C)(C)C)c(C2(O)C(N)=Nc3ccc(Cl)cc32)c1` (centres unmarked) [Compound 177], the IC50 lay in the range of 1 to 100 nM.
For `NC1=Nc2ccc(Cl)cc2C1(O)c1cc(F)ccc1N1CCOCC1` (centres unmarked) [Compound 178], the IC50 was 1 to 100 nM.
In the case of `COc1ccc2c(c1)C(O)(c1cc(F)ccc1N1CCOCC1)C(N)=N2` (centres unmarked) [Compound 179] it was 100 to 500 nM; in that of `COc1ccc2c(c1)C(O)(C1CC1)C(N)=N2` (centres unmarked) [Compound 180], 100 to 500 nM.
As for `Cc1ccc(CC2(O)C(N)=Nc3ccc(Cl)cc32)s1` (centres unmarked) [Compound 181], the IC50 fell in the range of 1 to 100 nM.
For the molecule `CCSc1ccc(F)cc1C1(O)C(N)=Nc2ccc(Cl)cc21` (centres unmarked) [Compound 182], the IC50 is 1 to 100 nM.
On to `CC(C)Sc1ccc(F)cc1C1(O)C(N)=Nc2ccc(Cl)cc21` (centres unmarked) [Compound 183], for which the half-maximal inhibitory concentration (IC50) is 1 to 100 nM.
For `NC1=Nc2ccc(Cl)cc2C1(O)c1cc(F)ccc1SC1CCC1` (centres unmarked) [Compound 184], the IC50 was in the range of 1 to 100 nM.
With `NC1=Nc2ccc(Cl)cc2C1(O)c1cc(SC2CCC2)ccc1F` (centres unmarked) [Compound 185], the IC50 was 1 to 100 nM.
Take `NC1=Nc2ccc(Cl)cc2C1(O)c1cc(Cl)ccc1F` (centres unmarked) [Compound 186]: the IC50 fell in the range of 1 to 100 nM.
In the case of `NC1=Nc2ccc(Cl)cc2C1(O)c1ccccc1SC1CCC1` (centres unmarked) [Compound 187], the half-maximal inhibitory concentration (IC50) fell in the range of 1 to 100 nM.
For `CC(C)(C)Sc1ccc(F)c(C2(O)C(N)=Nc3ccc(Cl)cc32)c1` (centres unmarked) [Compound 188], the IC50 is 100 to 500 nM.
Turning to `NC1=Nc2ccc(Cl)cc2C1(O)c1cc(Cl)ccc1SC1CCC1` (centres unmarked) [Compound 189], the IC50 was 1 to 100 nM.
Turning to `COc1ccc(SC(C)C)c(C2(O)C(N)=Nc3ccc(Cl)cc32)c1` (centres unmarked) [Compound 190], the IC50 was 1 to 100 nM.
As for `CCOc1ccc(OC)cc1C1(O)C(N)=Nc2ccccc21` (centres unmarked) [Compound 191], the IC50 lay within 1 to 100 nM.
`CN(C)c1ccc(F)cc1C1(O)C(N)=Nc2ccc(Cl)cc21` (centres unmarked) [Compound 192]: the 50% inhibitory concentration (IC50) lay in the range of 1 to 100 nM.
Consider `CC(C)(C)Sc1ccccc1C1(O)C(N)=Nc2ccc(Cl)cc21` (centres unmarked) [Compound 193], for which the IC50 is 1 to 100 nM.
With `CC(C)(C)Oc1ccc(F)cc1C1(O)C(N)=Nc2ccc(Cl)cc21` (centres unmarked) [Compound 194], the IC50 was 1 to 100 nM.
For `COc1ccc(OC2CCC2)c(C2(O)C(N)=Nc3ccccc32)c1` (centres unmarked) [Compound 195], the IC50 lay in the range of 1 to 100 nM.
Regarding `CCSc1ccc(OC)cc1C1(O)C(N)=Nc2ccc(Cl)cc21` (centres unmarked) [Compound 196], the IC50 was in the range of 1 to 100 nM.
In the case of `NC1=Nc2ccc(Cl)cc2C1(O)C1CCC1` (centres unmarked) [Compound 197] it was 100 to 500 nM; in that of `NC1=Nc2ccc(Cl)cc2C1(O)c1cc(F)ccc1F` (centres unmarked) [Compound 198], 100 to 500 nM; in that of `NC1=Nc2ccc(Cl)cc2C1(O)c1cc(F)ccc1SC1CC1` (centres unmarked) [Compound 199], 1 to 100 nM.
`NC1=Nc2ccc(Cl)cc2C1(O)c1cc(F)ccc1C1CC1` (centres unmarked) [Compound 200]: the half-inhibitory concentration (IC50) fell in the range of 1 to 100 nM.
As to `COc1cnc(OC)c(C2(O)C(N)=Nc3ccc(Cl)cc32)c1` (centres unmarked) [Compound 201], the IC50 lay within 1 to 100 nM.
In the case of `CSc1ccc(F)cc1C1(O)C(N)=Nc2ccc(Cl)cc21` (centres unmarked) [Compound 203], the IC50 was in the range of 1 to 100 nM.
Consider `CSc1ccc(F)c(C2(O)C(N)=Nc3ccc(Cl)cc32)c1` (centres unmarked) [Compound 204], for which the IC50 was in the range of 1 to 100 nM.
`NC1=Nc2ccc(Cl)cc2C1(O)c1ccccc1C1CC1` (centres unmarked) [Compound 205]: the half-inhibitory concentration (IC50) is 1 to 100 nM.
With `Cc1csc2c(CC3(O)C(N)=Nc4ccc(Cl)cc43)cccc12` (centres unmarked) [Compound 206], the IC50 lay within 100 to 500 nM.
For `COc1cnc(F)c(C2(O)C(N)=Nc3ccc(Cl)cc32)c1` (centres unmarked) [Compound 207], the IC50 was in the range of 100 to 500 nM.
In the case of `CC(C)Oc1ccc(F)c(C2(O)C(N)=Nc3ccc(Cl)cc32)c1` (centres unmarked) [Compound 208] it was 1 to 100 nM; in that of `CCOc1ccc(F)c(C2(O)C(N)=Nc3ccc(Cl)cc32)c1` (centres unmarked) [Compound 209], 1 to 100 nM.
`CCOc1cnc(OC)cc1C1(O)C(N)=Nc2ccc(Cl)cc21` (centres unmarked) [Compound 210]: the IC50 lay within 1 to 100 nM.
Regarding `CCOc1cnc(OC)c(C2(O)C(N)=Nc3ccc(Cl)cc32)c1` (centres unmarked) [Compound 211], the IC50 is 1 to 100 nM.
Under `COc1ccc(C2CC2)c(C2(O)C(N)=Nc3ccc(Cl)cc32)c1` (centres unmarked) [Compound 212] stands 1 to 100 nM.
For the molecule `NC1=Nc2ccc(Cl)cc2C1(O)c1cc(F)ccc1OC1CCOCC1` (centres unmarked) [Compound 213], the IC50 was in the range of 1 to 100 nM.
Turning to `NC1=Nc2ccc(Cl)cc2C1(O)c1ccccc1N1CCSCC1` (centres unmarked) [Compound 214], the IC50 is 1 to 100 nM.
As to `CC(C)Oc1cc(F)ccc1C1(O)C(N)=Nc2ccc(Cl)cc21` (centres unmarked) [Compound 215], the concentration for half-maximal inhibition (IC50) was 1 to 100 nM.
As for `NC1=Nc2ccc(Cl)cc2C1(O)c1ccccc1OC1CC1` (centres unmarked) [Compound 216], the IC50 was 1 to 100 nM.
With `COc1cc(F)c(C2(O)C(N)=Nc3ccc(Cl)cc32)cc1OC` (centres unmarked) [Compound 217], the IC50 was 1 to 100 nM.
For the molecule `CCCOc1cnc(OC)c(C2(O)C(N)=Nc3ccc(Cl)cc32)c1` (centres unmarked) [Compound 218], the IC50 fell in the range of 1 to 100 nM.
For `NC1=Nc2ccc(Cl)cc2C1(O)c1cc(Cl)ccc1OC1CC1` (centres unmarked) [Compound 219], the IC50 was 1 to 100 nM.
Consider `CCCOc1cnc(OC)cc1C1(O)C(N)=Nc2ccc(Cl)cc21` (centres unmarked) [Compound 220], for which the IC50 is 1 to 100 nM.
`COc1cnc(Cl)cc1C1(O)C(N)=Nc2ccc(Cl)cc21` (centres unmarked) [Compound 221]: the IC50 is 100 to 500 nM.
Turning to `CC(C)Oc1ccccc1[C@]1(O)C(N)=Nc2ccc(Cl)cc21` [Compound 222], the IC50 was in the range of 1 to 100 nM.
Consider `CC(C)Oc1ccccc1[C@@]1(O)C(N)=Nc2ccc(Cl)cc21` [Compound 223], for which the IC50 lay in the range of 1 to 100 nM.
As for `CCOc1cnc(Cl)cc1C1(O)C(N)=Nc2ccc(Cl)cc21` (centres unmarked) [Compound 224], the IC50 lay within 1 to 100 nM.
Regarding `CCOc1cc(F)ccc1C1(O)C(N)=Nc2ccc(Cl)cc21` (centres unmarked) [Compound 225], the IC50 lay in the range of 1 to 100 nM.
In the case of `Cn1cc(F)c2c(C3(O)C(N)=Nc4ccc(Cl)cc43)cccc21` (centres unmarked) [Compound 226], the IC50 was in the range of 100 to 500 nM.
Take `CC(C)C1(O)C(N)=Nc2cccc(Cl)c21` (centres unmarked) [Compound 227]: the 50% inhibitory concentration (IC50) was 100 to 500 nM.
Turning to `CCOc1cc(C2(O)C(N)=Nc3ccc(Cl)cc32)c(OC)cn1` (centres unmarked) [Compound 228], the IC50 lay within 1 to 100 nM.
In the case of `NC1=Nc2ccccc2C1(O)CC12CC3CC(CC(C3)C1)C2` (centres unmarked) [Compound 229], the IC50 was in the range of 100 to 500 nM.
Under `CC(C)C1(O)C(N)=Nc2cc(Cl)ccc21` (centres unmarked) [Compound 230] stands 100 to 500 nM; under `Cc1ccc2c(c1)C(O)(C(C)C)C(N)=N2` (centres unmarked) [Compound 231], 100 to 500 nM; under `NC1=Nc2ccc(Cl)cc2C1(O)c1cc(F)ccc1OC1CC1` (centres unmarked) [Compound 232], 1 to 100 nM.
In the case of `COc1cc(C2(O)C(N)=Nc3ccc(Cl)cc32)c(F)cn1` (centres unmarked) [Compound 233], the IC50 lay in the range of 100 to 500 nM.
Under `CCN(CC)c1ccccc1C1(O)C(N)=Nc2ccc(Cl)cc21` (centres unmarked) [Compound 234] stands 1 to 100 nM; under `CN(C)c1ncccc1C1(O)C(N)=Nc2ccc(Cl)cc21` (centres unmarked) [Compound 236], 100 to 500 nM; under `NC1=Nc2ccc(Cl)cc2C1(O)C#Cc1ccccc1` (centres unmarked) [Compound 237], 1000 to 5000 nM.
`COc1ncc(Cl)cc1C1(O)C(N)=Nc2ccc(Cl)cc21` (centres unmarked) [Compound 238]: the IC50 fell in the range of 1 to 100 nM.
On to `COc1ncccc1C1(O)C(N)=Nc2ccc(Cl)cc21` (centres unmarked) [Compound 239], for which the IC50 is 100 to 500 nM.
Consider `Cn1c(C2(O)C(N)=Nc3ccc(Cl)cc32)nc2cc(Br)ccc21` (centres unmarked) [Compound 241], for which the half-maximal inhibitory concentration (IC50) lay within 100 to 500 nM.
As to `CCOc1ncc(Cl)cc1C1(O)C(N)=Nc2ccc(Cl)cc21` (centres unmarked) [Compound 242], the IC50 was in the range of 1 to 100 nM.
On to `CCOc1cc(C2(O)C(N)=Nc3ccc(Cl)cc32)c(Cl)cn1` (centres unmarked) [Compound 243], for which the IC50 fell in the range of 1 to 100 nM.
With `CCOc1ccc(Cl)cc1C1(O)C(N)=Nc2ccc(C)cc21` (centres unmarked) [Compound 244], the IC50 lay in the range of 1 to 100 nM.
Take `Cc1ccc2c(c1)C(O)(c1cc(Cl)ccc1OC(C)C)C(N)=N2` (centres unmarked) [Compound 245]: the IC50 was 1 to 100 nM.
Regarding `CC(C)[C@]1(O)C(N)=Nc2ccc(Cl)cc21` [Compound 246], the IC50 is 100 to 500 nM.
Take `CC(C)[C@@]1(O)C(N)=Nc2ccc(Cl)cc21` [Compound 247]: the IC50 was 100 to 500 nM.
Regarding `CC(C)(C)Oc1ccccc1C1(O)C(N)=Nc2ccc(Cl)cc21` (centres unmarked) [Compound 248], the IC50 lay within 1 to 100 nM.
Under `CCOc1ccc(F)cc1C1(O)C(N)=Nc2ccc(C)cc21` (centres unmarked) [Compound 249] stands 1 to 100 nM.
Take `CCOc1cc(F)c(F)cc1C1(O)C(N)=Nc2ccc(Cl)cc21` (centres unmarked) [Compound 250]: the IC50 lay within 1 to 100 nM.
In the case of `CCOc1cc(F)ccc1C1(O)C(N)=Nc2ccc(C)cc21` (centres unmarked) [Compound 251] it was 1 to 100 nM.
For the molecule `Cn1cc2cc(Cl)cc(C3(O)C(N)=Nc4ccc(Cl)cc43)c2n1` (centres unmarked) [Compound 252], the IC50 was 1 to 100 nM.
For the molecule `COc1ccc2c(c1)C(O)(c1cc(Cl)ccc1C1CC1)C(N)=N2` (centres unmarked) [Compound 253], the half-maximal inhibitory concentration (IC50) was 1 to 100 nM.
Turning to `COc1cnc(OC)c(C2(O)C(N)=Nc3ccc(C)cc32)c1` (centres unmarked) [Compound 254], the IC50 fell in the range of 1 to 100 nM.
As to `CCOc1cc(F)c(F)cc1C1(O)C(N)=Nc2ccc(C)cc21` (centres unmarked) [Compound 255], the IC50 lay within 1 to 100 nM.
Consider `Cc1ccc2c(c1)C(O)(c1ccccc1C1CC1)C(N)=N2` (centres unmarked) [Compound 256], for which the IC50 lay within 1 to 100 nM.
`Cc1ccc2c(c1)C(O)(c1cccc3ccccc13)C(N)=N2` (centres unmarked) [Compound 257]: the IC50 is 1 to 100 nM.

By IC50 is commonly meant the midpoint of a concentration-inhibition curve.

These data come from US8980926B2, “2-aminoindole compounds and methods for the treatment of malaria” (Genzyme Corporation, priority 2009, dated 2015).
